Measured values reported in patent US6818656B2, “Method and composition for treatment of irritable bowel disease” (University of Florida, priority 2001, dated 2004).

What was measured:
[1] = system: stress-induced fecal output; assay: Psychological stress-induced (water avoidance) IBS model, SC administration; type: in vivo; details: for Stool Output: 6-h collection
From the text: (§1) For drug preparation and administration, the compounds were put into solution with sterile normal saline and sonicated briefly, if necessary. The drugs were made up at concentrations such that the rats received the drugs PO or SC at the rate of 1 cc per kilogram. Mice received the CHX(3,4,3)-trans IP at 1 cc per 100 grams. The solutions were made fresh the day of the study. Control animals received an equivalent amount of saline PO or SC.
Animal care and experimental procedures were approved by the Institutional Animal Care and Use Committee. Male Sprague-Dawley rats (250-350 g, Harlan Sprague-Dawley, Indianapolis, Ind.) were housed in polycarbonate cages in a temperature- and humidity-controlled room with a 12-hour light/dark cycle. The experiments were performed at the same time of the day to decrease diurnal variability. A typical experiment involved 20 rats: 5 saline-treated controls and 5 pretreated with polyamine analogues at each of three doses as either a SC injection or a PO gavage. The rats in the SC studies and in one set of experiments involving PO administration were allowed ad libitum access to a standard rodent diet and tap water until the morning of the experiment. Stress was initiated 30 minutes post drug as described below. In another set of experiments involving PO administration, the animals were fasted overnight but were allowed free access to water. […] In a final experiment, non-stressed control rats were injected with saline SC and housed in individual polycarbonate cages. The fecal output (number of pellets) of the stressed and unstressed animals was recorded at 30-min intervals for a 6-h period, during which they received no food or water.
(§2) To initiate the stress, water was added to each cage to a depth of at least 4.5 cm, i.e., within 0.5 cm of the top of the Pyrex dish. To avoid contact with water, the rats stand on the glass dish for the 6 h of the study. Stool output was expressed as the total number of fecal pellets excreted over the 6-h collection period. Percent reduction was calculated by dividing the mean value from the treated animals (T) by the mean value from the control animals (C), subtracting the resulting quotient from 1.0, and multiplying by 100 [i.e., (1.0−T/C)×100].
(§3) A one-tailed t-test assuming unequal variance was performed on the stool output data of the treated vs control (0 mg/kg) animals for each compound. A value of P<0.05 was considered significant.
The psychological stress-induced IBS model involves subjecting the rats to an aversive stimulus (water) and observing the increase in fecal output over a period of time. […] Control rats received an equivalent amount of saline SC.

[2] = system: stress-induced fecal output; assay: Psychological stress-induced (water avoidance) IBS model, PO administration by gavage; type: in vivo, rat; details: 6-hr collection
From the text: as §1
Animal care and experimental procedures were approved by the Institutional Animal Care and Use Committee. Male Sprague-Dawley rats (250-350 g, Harlan Sprague-Dawley, Indianapolis, Ind.) were housed in polycarbonate cages in a temperature- and humidity-controlled room with a 12-hour light/dark cycle. The experiments were performed at the same time of the day to decrease diurnal variability. A typical experiment involved 20 rats: 5 saline-treated controls and 5 pretreated with polyamine analogues at each of three doses as either a SC injection or a PO gavage. The rats in the SC studies and in one set of experiments involving PO administration were allowed ad libitum access to a standard rodent diet and tap water until the morning of the experiment. Stress was initiated 30 minutes post drug as described below. In another set of experiments involving PO administration, the animals were fasted overnight but were allowed free access to water. The animals were then stressed from ½ h to 2 h post-drug (data not shown). In a final experiment, non-stressed control rats were injected with saline SC and housed in individual polycarbonate cages. The fecal output (number of pellets) of the stressed and unstressed animals was recorded at 30-min intervals for a 6-h period, during which they received no food or water.
as §2, with “Once the drug had been administered, the animals were housed individually in polycarbonate cages containing a clear 70×50 mm Pyrex crystallization dish (Fisher, Pittsburgh, Pa.) inverted in the center and held in place with vacuum grease. To initiate” for “To initiate”
as §3
Because an orally active compound would be desirable for the treatment of IBS, selected analogues utilizing oral administration in the same model were assessed. In the initial studies animals were utilized that had been fasted overnight. Rodents were then given the drug of interest PO by gavage and stressed ½ h, 1 h, or 2 h post-drug. Unfortunately, because of the low baseline stool output in fasted control rats, the reductions in fecal output observed upon drug administration cannot be reported with any confidence (data not shown). Thereafter, only non-fasted animals were employed and were given the agents by gavage at doses of 11.6, 23.2, 57.8, or 115.6:mol/kg 30 minutes before initiating the stress. […] At doses of 11.6 and 23.2:mol/kg, CHX(3,4,3)-trans reduced stooling by about 80% (P=0.001 and <0.001, respectively). DEHSPM was effective at a dose of […]:mol/kg (40% diminution of fecal output; P<0.01), and DE(5,4,5) was active at doses of 23.2 and 57.8:mol/kg (55 and 73% reductions in fecal output, respectively; P<0.001 for both doses).

[3] = system: stress-induced fecal output; assay: as above; type: in vivo, rat; details: 2.3 μmol/kg PO, non-fasted, stress 30 min post drug, 6-hr collection
[4] = system: castor oil-induced diarrhea; details: cited from earlier work
[5] = Acute toxicity assessment, single intraperitoneal injection; type: in vivo
Experimental: For the acute toxicity assessment the CHX(3,4,3)-trans was administered to female CD-1 mice (Charles River, Wilmington, Mass.) as a single intraperitoneal (IP) injection. The animals were carefully observed post-dosing and were scored 2 h after administration of the drug.
as §1

Structure (SMILES): CCNCCCN[C@H]1CC[C@H](NCCCNCC)CC1 [Compound 12, N,N′-bis[3-(ethylamino)propyl]-trans-1,4-cyclohexanediamine]
- Stool Output ([1]; 0.0726 μmol/kg SC): 5.4 ± 2.1 number of fecal pellets
- Stool Output ([1]; 0.145 μmol/kg SC): 2.2 ± 1.3 number of fecal pellets
- Stool Output ([1]; 0.29 μmol/kg SC): 0.6 ± 0.9 number of fecal pellets
- toxic effects observed in stressed rats ([1]; 0.58 μmol/kg SC): ^gToxic effects were evident, including huddling in the corner of the cage.
- Stool Output ([1]; 0.58 μmol/kg SC): 0 ± 0 number of fecal pellets
- toxic effects observed in stressed rats ([1]; 1.16 μmol/kg SC): ^gToxic effects were evident, including huddling in the corner of the cage.
- Stool Output ([1]; 1.16 μmol/kg SC): 0 ± 0 number of fecal pellets
- toxic effects observed in stressed rats ([1]; 2.3 μmol/kg SC): ^gToxic effects were evident, including huddling in the corner of the cage.
- Stool Output ([1]; 2.3 μmol/kg SC, stress 30 min post drug): 0 ± 0 number of fecal pellets
- diminution in fecal output ([1]; 0.07 :mol/kg SC): 50%
- inhibition in vivo at 0.0726 µmol/kg ([1]; Rattus norvegicus, 0.0726 μmol/kg SC, vs stressed controls, 6 h, read-out: % Reduction): 52%
- inhibition in vivo at 0.145 µmol/kg ([1]; Rattus norvegicus, 0.145 μmol/kg SC, vs stressed controls, 6 h, read-out: % Reduction): 80%
- inhibition in vivo at 0.29 µmol/kg ([1]; Rattus norvegicus, 0.29 μmol/kg SC, vs stressed controls, 6 h, read-out: % Reduction): 95%
- inhibition in vivo at 0.58 µmol/kg ([1]; Rattus norvegicus, 0.58 μmol/kg SC, vs stressed controls, 6 h, read-out: % Reduction): 100%
- inhibition in vivo at 1.16 µmol/kg ([1]; Rattus norvegicus, 1.16 μmol/kg SC, vs stressed controls, 6 h, read-out: % Reduction): 100%
- inhibition in vivo at 2.3 µmol/kg ([1]; Rattus norvegicus, 2.3 μmol/kg SC, vs stressed controls, 6 h, read-out: % Reduction): 100%
- activity at diminishing stress-induced fecal output (in words) ([1]; SC administration to stressed rats): most effective against stress-induced stooling, regardless of the mode of administration
- dose needed to reduce fecal output of the stressed animals to that of the unstressed controls ([1]; SC, rats): 0.0625 mg/kg
- lowest dose that reduced stool output by >50% relative to the stressed controls ([1]; SC, rats): 0.03125 mg/kg
- 1 mg/kg neurotoxic dose relative to lowest dose reducing stool output by >50% ([1]; rats, 1 mg/kg vs 0.03125 mg/kg): greater than 30 times
- Stool Output ([2]; 11.6 μmol/kg PO): 2.2 ± 1.3 number of fecal pellets
- Stool Output ([2]; 23.2 μmol/kg PO): 2.0 ± 1.9 number of fecal pellets
- Stool Output [3]: 9.0 ± 1.6 number of fecal pellets
- doses at which signs of motor dysfunction, including seizures, were observed ([4]; rats, rodent antidiarrheal model): ≥ 1 mg/kg
- activity in castor oil-induced diarrhea model (in words) ([4]; rodent): most effective of the SPM analogues tested
- acute toxicity ([5]; IP, female CD-1 mice, single dose, scored 2 h): about 150 mg/kg
- toxic doses (neurological signs) ([5]; IP, single dose, mice): ≥ 125 mg/kg
- toxic dose in mice, allometrically scaled, relative to the 0.0625 mg/kg effective dose in rats ([5]; mouse toxic dose vs rat dose of 0.0625 mg/kg): at least 1000 times
- signs of acute toxicity in mice ([5]; toxic doses, mice): uncoordinated movements, intention tremors, and severe motor dysfunction, especially of the hind limbs
